Like-named read-outs stand apart in the source and are kept apart here. Where a SMILES comes first, the peptide text is derived from it. Bridges are numbered along the chain shown (N, C = ends). [ ]: non-standard residue; d: D form. The star is where a group is joined. hPhe(3-Cl-4-CF3) = N[C@@H](CCc1ccc(C(F)(F)F)c(Cl)c1)C(=O)O; NPrPhe(4-CF3) = CCCN[C@@H](Cc1ccc(C(F)(F)F)cc1)C(=O)O; NMeGly(cPent) = CN[C@H](C(=O)O)C1CCCC1; NMeD = CN[C@@H](CC(=O)O)C(=O)O; NMeL = CN[C@@H](CC(C)C)C(=O)O; Oxazolidin(3-yl) = C1CN(*)CO1; NMeA = CN[C@@H](C)C(=O)O; Ac5c = NC1(C(=O)O)CCCC1; Aze = O=C(O)[C@@H]1CCN1; Sar = CNCC(=O)O
How the values were obtained:
[1] = system: human lung cancer strain NCI-H441; type: cell-based
In short: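 Readout: […] after the ATP-based reagent. Compound: serial dilutions in dimethyl sulfoxide.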

[2] = molecular target: GDP-bound NRAS wild-type protein (Homo sapiens, UniProt P01111); test: Binding to NRAS by surface plasmon resonance (SPR), KD and KD ratio to KRAS
In short: (§1)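 GDP-loaded biotinylated Avi-tag RAS proteins (E. coli-expressed) captured on a Biotin CAPture chip at ~100–300 RU; single-cycle kinetics at 30°C, 100 µL/min, 75 s injections of rising compound concentrations. HBS pH 7.4 running buffer with 1 mM DTT, 10 mM MgCl2, 10 µM GDP, 4% DMSO. KD from 1:1 binding fit.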

HRAS wild-type protein = HRAS wild-type protein (Homo sapiens, UniProt P01112); test: Binding to HRAS by surface plasmon resonance (SPR), KD and KD ratio to KRAS
In short: as §1

[3] = ratio of KD for GDP-bound NRAS wild-type protein to KD for KRAS
[4] = ratio of KD for HRAS wild-type protein to KD for KRAS
[5] = ratio of KD value for GDP-bound NRAS wild-type protein to KD value for KRAS (SPR)
[6] = ratio of KD value for HRAS wild-type protein to KD value for KRAS (SPR)

Sequence of HRAS wild-type protein (P01112 whole entry): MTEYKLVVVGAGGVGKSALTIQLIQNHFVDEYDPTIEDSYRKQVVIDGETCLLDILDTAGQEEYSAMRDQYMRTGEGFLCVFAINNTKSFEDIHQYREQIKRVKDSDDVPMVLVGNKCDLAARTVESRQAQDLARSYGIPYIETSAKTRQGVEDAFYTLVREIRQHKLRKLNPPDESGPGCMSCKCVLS
Sequence of GDP-bound NRAS wild-type protein (P01111 whole entry): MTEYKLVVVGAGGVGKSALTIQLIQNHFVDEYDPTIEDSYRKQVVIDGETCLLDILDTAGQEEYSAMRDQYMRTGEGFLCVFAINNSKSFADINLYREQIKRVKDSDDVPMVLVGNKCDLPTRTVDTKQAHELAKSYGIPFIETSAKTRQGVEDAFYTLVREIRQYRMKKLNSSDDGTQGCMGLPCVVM

| IC50 [1] [nM] | Structure (SMILES) | NRAS /KRAS [2, 3] | HRAS /KRAS (HRAS wild-type protein; [4]) | IC50 ([1]; NCI-H441 cells, 4 days, CellTiter-Glo, read-out: NCl-H441 IC50) [nM] | NRAS /KRAS [2, 5] | HRAS /KRAS (HRAS wild-type protein; [6]) |
| --- | --- | --- | --- | --- | --- | --- |
| 1.6 | CCCN1C(=O)[C@@H]2CCN2C(=O)[C@H](C)N(C)C(=O)[C@H]([C@@H](C)CC)NC(=O)[C@H](CC(C)C)N(C)C(=O)C[C@@H](C(=O)N2CCOC2)N(C)C(=O)[C@H](C2CCCC2)N(C)C(=O)C2(CCCC2)NC(=O)[C@@H]2CCCN2C(=O)[C@H](CCc2ccc(C(F)(F)F)c(Cl)c2)NC(=O)CN(C)C(=O)[C@@H]1Cc1ccc(C(F)(F)F)cc1 [PP0183] ([NMeL]I[NMeA][Aze][NPrPhe(4-CF3)][Sar][hPhe(3-Cl-4-CF3)]P[Ac5c][NMeGly(cPent)][NMeD]-{Oxazolidin(3-yl)}; lactam N-11) | C (A compound having a KD ratio of 0.1 or more and less than 3 is denoted as C) | B (a compound having 3 or more and less than 10 is denoted as B) | – | – | – |
| 5.1 | CCO[C@@H]1C[C@H]2C(=O)NC3(CC(C)(C)C3)C(=O)N(C)[C@@H](C3CCCC3)C(=O)N(C)[C@H](C(=O)N(C)C)CC(=O)N(C)[C@@H](C)C(=O)N[C@@H]([C@@H](C)CC)C(=O)N(C)CC(=O)N(C)[C@H]3C/C=C\CCN(C3=O)[C@@H](Cc3ccc(C(F)(F)F)cc3)C(=O)N(C)CC(=O)N[C@@H](CCc3ccc(C(F)(F)F)c(OC)c3)C(=O)N2C1 [PP1674] | – | – | – | A (a compound having 10 or more and less than 20 is denoted as A) | A (a compound having 10 or more and less than 20 is denoted as A) |

The next lines start with the compound.

| Structure (SMILES) | IC50 [1] [nM] | NRAS /KRAS [2, 3] | HRAS /KRAS (HRAS wild-type protein; [4]) | IC50 ([1]; NCI-H441 cells, 4 days, CellTiter-Glo, read-out: NCl-H441 IC50) [nM] | NRAS /KRAS [2, 5] | HRAS /KRAS (HRAS wild-type protein; [6]) |
| --- | --- | --- | --- | --- | --- | --- |
| CCC[C@H]1C(=O)N[C@@H]([C@@H](C)CC)C(=O)N(C2CC2)CC(=O)N(C)[C@H]2C/C=C\CCN(C2=O)[C@@H](Cc2ccc(C)cc2)C(=O)N(C)CC(=O)N[C@@H](CCc2cc(Cl)c(C(F)F)c(Cl)c2)C(=O)N2C[C@H](OCC)C[C@H]2C(=O)NC2(CC(C)(C)C2)C(=O)N(C)[C@@H](C2CCCC2)C(=O)N(C)[C@H](C(=O)N(C)C)CC(=O)N1C [PP2877] | 96 | A (a compound having 10 or more and less than 20 is denoted as A) | A (a compound having 10 or more and less than 20 is denoted as A) | – | – | – |
| CCC[C@H]1C(=O)N[C@@H]([C@@H](C)CC)C(=O)N(C)CC(=O)N(C)[C@H]2C/C=C\CCN(C2=O)[C@@H](Cc2ccc(C(F)(F)F)cc2)C(=O)N(C)CC(=O)N[C@@H](CCc2ccc(C3CC3)c(Cl)c2)C(=O)N2C[C@H](OCC)C[C@H]2C(=O)NC2(CC(C)(C)C2)C(=O)N(C)[C@@H](C2CCCC2)C(=O)N(C)[C@H](C(=O)N(C)C)CC(=O)N1C [PP2858] | – | A (a compound having 10 or more and less than 20 is denoted as A) | B (a compound having 3 or more and less than 10 is denoted as B) | 11.8 | – | – |
| CCC[C@H]1C(=O)N[C@@H]([C@@H](C)CC)C(=O)N(C)CC(=O)N(C)[C@H]2C/C=C\CCN(C2=O)[C@@H](Cc2ccc(C)cc2)C(=O)N(C)CC(=O)N[C@@H](CCc2ccc(C(F)(F)F)c(Cl)c2)C(=O)N2C[C@@H](C)C[C@H]2C(=O)NC2(CC(C)(C)C2)C(=O)N(C)[C@@H](C2CCCC2)C(=O)N(C)[C@H](C(=O)N(C)CC)CC(=O)N1C [PP1893] | 18.5 | – | – | – | A (a compound having 10 or more and less than 20 is denoted as A) | B (a compound having 3 or more and less than 10 is denoted as B) |
| CCO[C@@H]1C[C@H]2C(=O)NC3(CC(C)(C)C3)C(=O)N(C)[C@@H](C(CC)CC)C(=O)N(C)[C@H](C(=O)N3CCCC3)CC(=O)N(C)[C@H]3CCC/C=C/c4ccc(cc4)C[C@@H](C(=O)N(C)CC(=O)N[C@@H](CCc4cc(F)c(C(F)(F)F)c(F)c4)C(=O)N2C1)N1CC/C=C\C[C@@H](C1=O)N(C)C(=O)CN(C)C(=O)[C@H]([C@@H](C)CC)NC3=O [PP2576] | 5.7 | A (a compound having 10 or more and less than 20 is denoted as A) | A (a compound having 10 or more and less than 20 is denoted as A) | – | – | – |

Source: patent EP4603105A1, “PHARMACEUTICAL COMPOSITION CONTAINING CYCLIC COMPOUND HAVING SELECTIVE KRAS INHIBITORY EFFECT AGAINST HRAS AND NRAS” (CHUGAI SEIYAKU KABUSHIKI KAISHA, priority 2022, dated 2024)
